The term Ki denotes the equilibrium dissociation constant of an inhibitor or competing ligand from its target. A lower Ki goes with a stronger hold on the target.

For this assay, the target named is T1, human dopamine D4 receptor (Homo sapiens, UniProt P21917).
T1 construct: expressed in transfected cells
T1 sequence (P21917 1-419): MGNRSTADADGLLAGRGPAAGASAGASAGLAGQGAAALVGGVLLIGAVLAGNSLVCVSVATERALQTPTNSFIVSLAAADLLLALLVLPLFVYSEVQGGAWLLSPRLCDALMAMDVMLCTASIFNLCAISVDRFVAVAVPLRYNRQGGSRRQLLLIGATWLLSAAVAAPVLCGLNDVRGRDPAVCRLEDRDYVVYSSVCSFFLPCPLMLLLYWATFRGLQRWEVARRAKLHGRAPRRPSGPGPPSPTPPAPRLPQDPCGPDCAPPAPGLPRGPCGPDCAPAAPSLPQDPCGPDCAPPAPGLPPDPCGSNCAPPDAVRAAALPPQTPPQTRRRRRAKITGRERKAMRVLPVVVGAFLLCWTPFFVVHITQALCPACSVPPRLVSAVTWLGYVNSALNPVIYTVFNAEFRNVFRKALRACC
Description: Binding affinity for dopamine D4 receptor ([3H]-spiperone displacement, membrane fraction). To be noted: cloned human dopamine D4 receptor; [3H]-spiperone 0.2nM; 37°C for 30 min; Ki from IC50 by the equation of Cheng and Prusoff. The method, then: Cells that express cloned human dopamine D4 receptor were harvested in an assay buffer (50mM Tris-HCl, pH7.4, containg 120 mM NaCl, 5 mM KCl, 1mM MgCl2, and 1 mM CaCl2) and homogenized in a potter type homogenizer. The membrane fraction was centrifuged at 39000 g for 20 min at 4°C. The pellet was suspended in 1 ml of the assay buffer per cells from dish having a diameter of 10 cm and was again homogenated. The aliquots (100µl) was added to the buffer containing [^3H]-spiperone of a final concentration of 0.2nM and a test compound to the final assay volume of 300µl, which was then incubated at 37°C for 30 min. The incubation was stopped by rapid filtration on a GF/B filter. Washing with 5 ml of ice-cold 50 mM Tris-HCl (pH 7.4) was then carried out. The radioactivity was measured with a packered liquid scintillation counter. The amount of nonspecific binding was determined in the presence of 1 µM spiperone, and the amount of the specific binding was then determined by subtracting the amount of the nonspecific binding from the total binding. For each compound, IC50 was determined by a regression analysis using a nonlinear least square method. The Ki value was then calculated by the equation of Cheng and Prusoff.
`O=c1ccc2ccccc2n1CCCN1CCN(CC2CCCCC2)CC1` [Example 1, 1-[3-(4-Cyclohexanemethyl-1-piperazinyl)-propyl]-2(1H)-quinolinone]: the affinity corresponds to a Ki of 7.6 nM.

The molecule `O=c1ccc2ccccc2n1CCCN1CCN(Cc2ccc(F)c(F)c2)CC1` [Example 3, 1-[3-[4-(3,4-Difluorobenzyl)-1-piperazinyl]-propyl]-2(1H)-quinolinone] registered a Ki of 18 nM.

`O=C1CCc2ccccc2N1CCN1CCN(CC2CCCCC2)CC1` [Example 10 (A), 1-[2-(4-Cyclohexanemethyl-1-piperazinyl)-ethyl]-3,4-dihydro-2(1H)-quinolinone] displayed an inhibitory constant (Ki) of 34 nM.

Regarding `O=c1ccc2ccccc2n1CCCN1CCC(Oc2ccc(Cl)cc2)CC1` [Example 20, 1-[3-[4-(4-Chlorophenoxy)-1-piperidinyl]-propyl]-2(1H)-quinolinone], affinity was put at a Ki of 2 nM.

Turning to `O=c1ccc2ccccc2n1CCCC1CCN(Cc2ccc(F)c(F)c2)CC1` [Example 24, 1-[3-[1-(3,4-Difluorobenzyl)-4-piperidinyl]-propyl]-2 (1H)-quinolinone], the affinity, expressed as Ki, was 6 nM. Compared with the last molecule, the Ki is about 3-fold higher.

With `O=C1COc2ccccc2N1CCCC1CCN(Cc2ccc(F)cc2)CC1` [Example 27, 1-[3-[1-(4-Fluorobenzyl)-4-piperidinyl]-propyl]-4H-benzo[1,4]oxazin-3-one], the affinity corresponds to a Ki of 29 nM. This Ki is about 4.8-fold higher than that of the molecule before.

`O=C1COc2ccccc2N1CCCC1CCN(Cc2ccc(Cl)cc2)CC1` [Example 29, 1-[3-[1-(4-Chlorobenzyl)-4-piperidinyl]-propyl]-4H-benzo[1,4]oxazin-3-one]: the Ki was found to be 5.1 nM. This Ki is about 5.7-fold lower than that of the molecule before.

With `O=C1CCc2ccccc2N1CCCC1CCN(Cc2ccc(F)c(F)c2)CC1` [Example 30, 1-[3-[1-(3,4-Difuorobenzyl)-4-piperidinyl]-propyl]-3,4-dihydro-2 (1H)-quinolinone], affinity was put at a Ki of 5.7 nM.

Take `O=C1CSc2ccccc2N1CCCC1CCN(Cc2ccc(F)cc2)CC1` [Example 32]: the affinity, expressed as Ki, was 7.6 nM. This Ki and that of the molecule before are within 1.5-fold of each other.

Molecule `O=C1CSc2ccccc2N1CCCC1CCN(Cc2ccc(Cl)cc2)CC1` [Example 33] showed a Ki of 1 nM.

With `O=C1CCc2ccccc2N1CCCC1CCN(Cc2ccc(F)cc2F)CC1` [Example 39, 1-[3-[1-(2,4-Difluorobenzyl)-4-piperidinyl]propyl]-3,4-dihydro-2(1H)-quinolinone], the Ki turned out to be 5.9 nM.

`O=C1CCc2ccccc2N1CCCC1CCN(Cc2ccc(Cl)cc2)CC1` [Example 41, 1-[3-[1-(4-Chlorobenzyl)-4-piperidinyl]-propyl]-3,4-dihydro-2 (1H)-quinolinone] yielded a Ki of 1.1 nM.

The molecule `Cc1ccccc1CN1CCC(CCCN2C(=O)CCc3ccccc32)CC1` [Example 44, 1-[3-[1-(2-Methylbenzyl)-4-piperidinyl]-propyl]-3,4-dihydro-2(1H)-quinolinone] had a Ki of 2.8 nM.

With `Cc1cccc(CN2CCC(CCCN3C(=O)CCc4ccccc43)CC2)c1` [Example 54, 1-[3-[1-(3-Methylbenzyl)-4-piperidinyl]-propyl]-3,4-dihydro-2(1H)-quinolinone], affinity was put at a Ki of 7.5 nM. This Ki lies about 2.7-fold higher than the previous one.

The molecule `Cc1ccc(CN2CCC(CCCN3C(=O)CCc4ccccc43)CC2)cc1` [Example 55, 1-[3-[1-(4-Methylbenzyl)-4-piperidinyl]-propyl]-3,4-dihydro-2 (1H)-quinolinone] registered a Ki of 1 nM.

The values are drawn from patent EP0934932A1 (MEIJI SEIKA KABUSHIKI KAISHA, priority 1996, dated 1998).
